Test results as given in ChEMBL document CHEMBL1129443, “Inactivation of S-adenosyl-L-homocysteine hydrolase by amide and ester derivatives of adenosine-5'-carboxylic acid” (J Med Chem, 1996).

Key:
Adenosylhomocysteinase [1] = target: T1, Adenosylhomocysteinase (Homo sapiens, UniProt P23526); experiment: Inhibition of S-adenosyl-L-homocysteine hydrolase, inactivation rate constant.
Target sequence in this assay (P23526 whole entry): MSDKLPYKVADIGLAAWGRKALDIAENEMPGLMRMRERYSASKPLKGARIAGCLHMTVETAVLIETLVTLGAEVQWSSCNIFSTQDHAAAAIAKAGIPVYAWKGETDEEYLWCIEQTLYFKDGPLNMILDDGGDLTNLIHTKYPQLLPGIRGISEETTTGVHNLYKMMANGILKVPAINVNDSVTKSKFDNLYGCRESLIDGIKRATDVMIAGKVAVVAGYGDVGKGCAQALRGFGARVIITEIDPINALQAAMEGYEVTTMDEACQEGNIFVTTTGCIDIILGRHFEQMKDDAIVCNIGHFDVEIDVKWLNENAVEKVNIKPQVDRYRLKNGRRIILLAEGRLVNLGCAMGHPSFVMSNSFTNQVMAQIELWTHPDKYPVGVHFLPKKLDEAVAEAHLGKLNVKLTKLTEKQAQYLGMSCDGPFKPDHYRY

Adenosylhomocysteinase [2] = target: T1, Adenosylhomocysteinase
Target sequence in this assay (P23526 2-432 limits assumed): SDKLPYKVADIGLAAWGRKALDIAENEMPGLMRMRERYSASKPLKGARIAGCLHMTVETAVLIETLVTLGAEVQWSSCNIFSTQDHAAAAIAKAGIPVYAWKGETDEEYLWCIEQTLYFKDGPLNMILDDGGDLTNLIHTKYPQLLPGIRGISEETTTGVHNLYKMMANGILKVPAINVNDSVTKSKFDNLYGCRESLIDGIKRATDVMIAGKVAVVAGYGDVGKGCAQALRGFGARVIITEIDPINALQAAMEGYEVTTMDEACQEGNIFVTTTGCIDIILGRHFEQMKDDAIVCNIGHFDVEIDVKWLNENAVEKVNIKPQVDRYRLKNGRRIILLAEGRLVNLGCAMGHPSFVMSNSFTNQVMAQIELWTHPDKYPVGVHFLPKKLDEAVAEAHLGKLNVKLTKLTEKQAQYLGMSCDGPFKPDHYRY
Description: Inhibition of S-adenosyl-L-homocysteine hydrolase, dissociation constant.

SMILES	Ki (Adenosylhomocysteinase [1])	K2 (Adenosylhomocysteinase [2])
COC(=O)[C@H]1O[C@@H](n2cnc3c(N)ncnc32)[C@H](O)[C@@H]1O	1700 nM	0.78 min⁻¹
Nc1ncnc2c1ncn2[C@@H]1O[C@H](C(=O)O)[C@@H](O)[C@H]1O [5'-CARBOXY ADENOSINE]	410 nM	0.045 min⁻¹
NC(=O)[C@H]1OC(n2cnc3c(N)ncnc32)[C@H](O)[C@@H]1O (stereo partly drawn)	2600 nM	0.1 min⁻¹
Nc1ncnc2c1ncn2C1O[C@H](C(=O)OCCCl)[C@@H](O)[C@H]1O (stereo partly drawn)	320 nM	0.35 min⁻¹
CC(C)COC(=O)[C@H]1OC(n2cnc3c(N)ncnc32)[C@H](O)[C@@H]1O (stereo partly drawn)	570 nM	0.077 min⁻¹
Nc1ncnc2c1ncn2[C@@H]1O[C@H](C=O)[C@@H](O)[C@H]1O	39 nM	0.65 min⁻¹
Nc1ncnc2c1ncn2C1O[C@H](C(=O)NCc2ccccc2)[C@@H](O)[C@H]1O (stereo partly drawn)	43400 nM	0.03 min⁻¹
Nc1ncnc2c1ncn2C1O[C@H](C(=O)Nc2ccccc2)[C@@H](O)[C@H]1O (stereo partly drawn)	48500 nM	0.028 min⁻¹
CCCCNC(=O)[C@H]1OC(n2cnc3c(N)ncnc32)[C@H](O)[C@@H]1O (stereo partly drawn)	19800 nM	0.03 min⁻¹
CCCCOC(=O)[C@H]1OC(n2cnc3c(N)ncnc32)[C@H](O)[C@@H]1O (stereo partly drawn)	710 nM	0.11 min⁻¹
CNC(=O)[C@H]1O[C@@H](n2cnc3c(N)ncnc32)[C@H](O)[C@@H]1O	1930 nM	0.095 min⁻¹
CCN(CC)C(=O)[C@H]1OC(n2cnc3c(N)ncnc32)[C@H](O)[C@@H]1O (stereo partly drawn)	570 nM	0.05 min⁻¹
Nc1ncnc2c1ncn2C1O[C@H](C(=O)OCc2ccccc2)[C@@H](O)[C@H]1O (stereo partly drawn)	360 nM	0.017 min⁻¹
CC(C)OC(=O)[C@H]1OC(n2cnc3c(N)ncnc32)[C@H](O)[C@@H]1O (stereo partly drawn)	770 nM	0.064 min⁻¹
